Data: patent publication US20070149557A1, “CXCR3 antagonists” (Amgen Inc., priority 2005, published 2007)

Each compound was assayed against T1, CXCR3 (Homo sapiens, UniProt P49682) (assay: 125I-IP-10 binding assay). Details: displacement of 125I-IP-10.
T1 sequence (P49682 1-368): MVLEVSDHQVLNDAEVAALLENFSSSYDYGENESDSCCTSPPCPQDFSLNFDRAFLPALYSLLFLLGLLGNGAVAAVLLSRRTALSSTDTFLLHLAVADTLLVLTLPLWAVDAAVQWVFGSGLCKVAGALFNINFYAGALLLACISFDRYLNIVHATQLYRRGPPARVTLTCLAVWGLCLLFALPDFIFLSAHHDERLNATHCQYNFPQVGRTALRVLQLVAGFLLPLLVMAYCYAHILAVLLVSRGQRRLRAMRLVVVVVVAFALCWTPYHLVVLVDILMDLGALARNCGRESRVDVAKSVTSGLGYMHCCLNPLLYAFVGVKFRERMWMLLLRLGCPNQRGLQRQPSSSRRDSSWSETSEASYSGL

| Structure (SMILES) | IC50 [nM] |
| --- | --- |
| NC(=O)c1cc(C(F)(F)F)ccc1N1CCC2(CC1)NCCc1c2[nH]c2ccccc12 [Example 9] | 500 to 1000 |
| FC(F)(F)c1ccc(N2CCC3(CC2)NCCc2c3[nH]c3ccccc23)cc1 [Example 7] | > 1000 |
| O=[N+]([O-])c1ccc(N2CCC3(CC2)NCCc2c3[nH]c3ccccc23)c(Cl)c1 [Example 18] | > 1000 |
| COC(=O)c1ccc(N2CCC3(CC2)NCCc2c3[nH]c3ccccc23)c(Cl)c1 [Example 19] | > 1000 |
| Cc1cc(C(F)(F)F)cnc1N1CCC2(CC1)NCCc1c2[nH]c2ccccc12 [Example 4] | > 1000 |
| FC(F)(F)c1ccc(N2CCC3(CC2)NCCc2c3[nH]c3ccccc23)c(C(F)(F)F)c1 [Example 11] | > 1000 |
| O=[N+]([O-])c1cc(C(F)(F)F)cc(Cl)c1N1CCC2(CC1)NCCc1c2[nH]c2ccccc12 [Example 15] | < 500 |
| FC(F)(F)c1cc(Cl)c(N2CCC3(CC2)NCCc2c3[nH]c3ccccc23)c(Cl)c1 [Example 14] | > 1000 |
| Fc1cc(C(F)(F)F)ccc1N1CCC2(CC1)NCCc1c2[nH]c2ccccc12 [Example 12] | > 1000 |
| FC(F)(F)c1ccc(N2CCC3(CC2)NCCc2c3[nH]c3ccccc23)c(Cl)c1 [Example 5] | < 500 |
| FC(F)(F)c1ccc(Cl)c(N2CCC3(CC2)NCCc2c3[nH]c3ccccc23)c1 [Example 6] | > 1000 |
| O=[N+]([O-])c1cc(C(F)(F)F)ccc1N1CCC2(CC1)NCCc1c2[nH]c2ccccc12 [Example 8] | > 1000 |
| N#Cc1cc(C(F)(F)F)ccc1N1CCC2(CC1)NCCc1c2[nH]c2ccccc12 [Example 10] | > 1000 |
| FC(F)(F)c1cnc(N2CCC3(CC2)NCCc2c3[nH]c3ccccc23)c(Cl)c1 [Example 1] | < 500 |
| Clc1cnc(N2CCC3(CC2)NCCc2c3[nH]c3ccccc23)c(Cl)c1 [Example 3] | > 1000 |
| FC(F)(F)c1ccc(N2CCC3(CC2)NCCc2c3[nH]c3ccccc23)c(Br)c1 [Example 13] | > 1000 |
| Clc1ccc(N2CCC3(CC2)NCCc2c3[nH]c3ccccc23)c(Cl)c1 [Example 16] | > 1000 |
| FC(F)(F)c1ccc(N2CCC3(CC2)NCCc2c3[nH]c3ccccc23)nc1 [Example 2] | > 1000 |
| Clc1cc(I)ccc1N1CCC2(CC1)NCCc1c2[nH]c2ccccc12 [Example 17] | > 1000 |
